Reference: PMC9102502, “The Influence of Selected Antipsychotic Drugs on Biochemical Aspects of Alzheimer’s Disease” (International Journal of Molecular Sciences, 2022)
Read-outs that look alike come from different tables or passages of the source.

Experiments:
[1] = tested on: astrocytes; assay: WST-1 viability under AAPH-induced oxidative stress, astrocytes; format: cell-based, human; settings: for astrocyte viability compared with the control (pure AAPH): benperidol 5 and 10 μg/L, penfluridol 12.5 μg/L, pimozide 15 μg/L, promazine 25 and 50 μg/L
Experimental: (§1) WST-1 assay (Takara, Takara Bio Europe, Saint-Germain-en-Laye, France) was used to assess the effects of antipsychotics on the growth of HUVEC and astrocytes. The experiments were conducted as described previously. HUVEC were seeded at a density of 7500 cells, and astrocytes at 5000 cells per well on 96-well microplates and cultured for 24 h followed by treatment with compounds at ½ × TPCmax and TPCmax or pure medium as a control (v = 100 μL) for another 24 h (37 °C, 5% CO2). Subsequently, the cells were washed with culture medium (100 μL) and WST-1 reagent diluted in medium (10 μL of reagent + 90 μL of medium) was added. The plates were incubated at 37 °C in 5% CO2 for another 90 min for HUVEC and 60 min for astrocytes. The absorbance was read at 450 nm using a microplate reader (iMARK, Bio-Rad, Hercules, CA, USA). The cells viability was expressed as a percentage of the control samples which constituted 100% viability.
(§2) Moreover, the WST-1 assay was used to evaluate potential protective effects of antipsychotics on the growth of HUVEC and astrocytes under conditions of AAPH-induced oxidative stress. The experimental conditions were the same as in viability studies. AA at the final concentration of 10 μg/mL was used as an antioxidant control. After reaching the confluence, the antipsychotics were added at concentrations equaling ½ × TPCmax and TPCmax. After 1 h incubation under standard conditions, 50 μL AAPH was added to the wells containing tested compounds or AA. The AAPH concentration was chosen on the basis of preliminary experiments—17.5 mmol/L in HUVEC experiments, and 15.0 mmol/L in the case of astrocytes.

[2] = biological target: T1, recombinant human β-amyloid (1–42) (Homo sapiens, UniProt P05067); assay: Beta-amyloid aggregation, Thioflavin T fluorescence; format: biochemical
T1 construct: recombinant human β-amyloid (1–42; ultrapure); purchased Sigma-Aldrich (St. Louis, MO, USA)
T1 sequence (P05067 672-713 limits assumed): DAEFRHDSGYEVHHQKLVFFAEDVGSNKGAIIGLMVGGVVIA
Experimental: Aβ42 peptide was dissolved in DMSO and left to hydrate for a few minutes. The solution was centrifuged at 10,000 rpm for 5 min at 4 °C to separate any precipitated material. The solution at a concentration of 220 μmol/L was stored in small aliquots at a temperature of −30 °C and before each experiment it was restored at 37 °C for 15 min. Test samples containing Aβ42 solution at the final concentration of 20 μmol/L was incubated with antipsychotics at concentrations equaling their TPC and 1/2 × TPC (v = 10 µL). The final volume of the test samples was 100 μL. The positive control constituted a sample of Aβ42 peptide, whereas the negative control contained tannic acid at the final concentrations of 0.1 µmol/L and 10 µmol/L. The fibrillation reaction was set up by addition of thioflavin ThT dye at a concentration of 5 µmol/L. The fluorescence intensity was measured at room temperature with Ex/Em = 440 nm/484 nm (Synergy H1; BioTek, Winooski, VT, USA). The measurements of fluorescence intensity expressed as relative fluorescence units (RFU) were taken at 10, 30, 60 and 90 min and then after 24 and 48 h. The fluorescence intensity measured for control equaled 100% of Aβ aggregation and it was used to estimate the inhibitory properties of the tested antipsychotics.

[3] = biological target: AChE (Homo sapiens, UniProt P22303); assay: Synergism of antipsychotics with donepezil/rivastigmine (binary mixtures), AChE; settings: for CI (combination index), AChE: ComboSyn;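 on all read-outs here: antipsychotic concentration kept fixed across all measurements, selected from estimated therapeutic plasma levels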
AChE, sequence (P22303 32-617 isoform P22303-2 limits assumed): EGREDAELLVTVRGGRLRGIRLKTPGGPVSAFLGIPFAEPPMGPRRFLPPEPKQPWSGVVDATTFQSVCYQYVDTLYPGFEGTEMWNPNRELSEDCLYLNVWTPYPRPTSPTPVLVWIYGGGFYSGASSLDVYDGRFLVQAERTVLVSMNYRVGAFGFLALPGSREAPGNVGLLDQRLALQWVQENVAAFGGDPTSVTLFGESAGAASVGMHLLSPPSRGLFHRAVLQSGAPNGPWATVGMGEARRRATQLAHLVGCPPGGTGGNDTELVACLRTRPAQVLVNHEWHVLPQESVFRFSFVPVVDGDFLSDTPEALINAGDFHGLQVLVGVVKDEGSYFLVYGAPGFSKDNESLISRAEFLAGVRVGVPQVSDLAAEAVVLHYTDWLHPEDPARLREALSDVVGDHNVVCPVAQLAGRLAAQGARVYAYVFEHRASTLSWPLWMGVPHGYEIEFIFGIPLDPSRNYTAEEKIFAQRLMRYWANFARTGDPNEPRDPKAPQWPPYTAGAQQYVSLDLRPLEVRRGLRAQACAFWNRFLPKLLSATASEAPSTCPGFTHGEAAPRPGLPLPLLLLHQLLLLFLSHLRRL
From the text: (§6) In turn, the concentrations of antipsychotics were constant in every measurement, and were chosen on the basis of estimated therapeutic plasma concentrations.
(§7) Automatic simulation of synergism and antagonism at all doses or effect levels is possible by computer software, based on algorithms. Calculation of the combination index (CI) and isobologram analyses enable to quantitatively determine drug interactions, where CI < 1, =1 and >1 indicate synergism, additive effect and antagonism, respectively. […] The software also allowed us to display the dose–effect curve, the median–effect plot and the dose-reduction index (DRI) plot [36].

[4] = biological target: T2, human erythrocyte acetylcholinesterase (Homo sapiens, UniProt P22303); assay: AChE inhibition, modified Ellman's method; format: biochemical
T2 construct: solution of hemolyzed erythrocytes diluted 400-fold; from tissue; host or cells: hemolyzed erythrocytes from blood of healthy human donors
T2 sequence (P22303 32-617 isoform P22303-2 limits assumed): as above
Experimental: (§3) The activity of both cholinesterases (AChE and BuChE) were assessed spectrophotometrically according to the Ellman’s method with some modifications by Worek et al.. This test development included experimental determination of the optimal testing conditions. For all measurements, 37 °C was used as the best temperature for enzymatic determinations in material of human origin.
(§4) The solution of plasma 200-fold diluted with 0.9% NaCl and solution of hemolyzed erythrocytes diluted 400-fold with 0.9% were incubated (37 °C, 15 min) with 5 μL DTNB (0.01 mol/L) and 10 μL tested compound at a wider range of concentration than the therapeutic range in order to assess the overall effect of the compound on human esterases (AChE and BuChE). The controls without antipsychotics, containing only DTNB and diluted plasma or diluted solution of hemolyzed erythrocytes, were prepared. […] The final volume of a sample was 500 μL. […] The maximal velocity of the reaction was determined on the basis of changes in absorbance over time.
(§5) AChE SI (selectivity index) was calculated by using the following formula: SI = IC50 of BuChE/IC50 of AChE. However, BuChE SI was defined as IC50 of AChE/IC50 of BuChE. Maximal velocity (Vmax) and the Michaelis constant (Km) were calculated with the use of linear regression—according to the Hanes–Woolf plot.

[5] = tested on: HUVEC cells; assay: WST-1 viability under AAPH-induced oxidative stress, HUVEC; format: cell-based, human; settings: AAPH 17.5 mmol/L; for viability of HUVEC under AAPH: relative to pure medium control
Experimental: as §1, §2

[6] = biological target: BuChE (Homo sapiens, UniProt P06276); assay: Synergism of antipsychotics with donepezil/rivastigmine (binary mixtures), BuChE;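 further: combination index derived by median-effect analysis of combined drug effects on the cholinesterase, with values below 1 meaning synergism, exactly 1 additivity and above 1 antagonism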
BuChE, sequence (P06276 29-602): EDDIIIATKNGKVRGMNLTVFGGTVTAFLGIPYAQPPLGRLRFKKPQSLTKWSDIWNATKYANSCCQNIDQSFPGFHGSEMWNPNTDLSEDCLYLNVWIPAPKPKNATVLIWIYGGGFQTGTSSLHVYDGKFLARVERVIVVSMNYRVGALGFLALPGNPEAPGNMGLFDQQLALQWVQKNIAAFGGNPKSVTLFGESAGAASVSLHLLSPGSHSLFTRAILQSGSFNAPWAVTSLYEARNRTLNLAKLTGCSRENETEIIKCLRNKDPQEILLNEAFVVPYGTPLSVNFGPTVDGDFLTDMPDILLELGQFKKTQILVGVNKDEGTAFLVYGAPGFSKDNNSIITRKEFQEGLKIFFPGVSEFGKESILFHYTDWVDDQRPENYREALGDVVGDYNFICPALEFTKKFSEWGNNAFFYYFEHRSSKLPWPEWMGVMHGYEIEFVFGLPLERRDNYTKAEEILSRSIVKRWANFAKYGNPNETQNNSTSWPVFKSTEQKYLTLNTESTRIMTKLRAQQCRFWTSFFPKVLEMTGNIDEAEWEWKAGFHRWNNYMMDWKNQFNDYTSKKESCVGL
From the text: as §6, §7

[7] = biological target: T3, human plasma butyrylcholinesterase (Homo sapiens, UniProt P06276); assay: BuChE inhibition, modified Ellman's method; format: biochemical
T3 construct: The solution of plasma 200-fold diluted with 0.9% NaCl; from tissue; host or cells: citrated plasma from blood of healthy human donors
T3 sequence (P06276 29-602): as above
Experimental: as §3, §4, §5

[8] = donepezil 0.005 μmol/L + antipsychotic at TPCmax, CI < 1 synergism, > 1 antagonism
[9] = donepezil 0.01 μmol/L + antipsychotic at TPCmax
[10] = donepezil 0.02 μmol/L + antipsychotic at TPCmax
[11] = donepezil 0.05 μmol/L + antipsychotic at TPCmax
[12] = donepezil 0.1 μmol/L + antipsychotic at TPCmax
[13] = rivastigmine 5 μmol/L + antipsychotic at TPCmax
[14] = rivastigmine 10 μmol/L + antipsychotic at TPCmax
[15] = rivastigmine 15 μmol/L + antipsychotic at TPCmax
[16] = rivastigmine 25 μmol/L + antipsychotic at TPCmax
[17] = rivastigmine 40 μmol/L + antipsychotic at TPCmax
[18] = rivastigmine 75 μmol/L + antipsychotic at TPCmax
[19] = rivastigmine 100 μmol/L + antipsychotic at TPCmax
[20] = TPC (bromperidol 25 μg/L, quetiapine 400 μg/L)
[21] = ½ × TPC (bromperidol 12.5 μg/L, quetiapine 200 μg/L)
[22] = donepezil 2 μmol/L + antipsychotic at TPCmax, ComboSyn
[23] = donepezil 5 μmol/L + antipsychotic at TPCmax, ComboSyn
[24] = donepezil 10 μmol/L + antipsychotic at TPCmax, ComboSyn
[25] = donepezil 20 μmol/L + antipsychotic at TPCmax, ComboSyn
[26] = donepezil 50 μmol/L + antipsychotic at TPCmax, ComboSyn
[27] = donepezil 100 μmol/L + antipsychotic at TPCmax, ComboSyn
[28] = rivastigmine 0.05 μmol/L + antipsychotic at TPCmax, ComboSyn
[29] = rivastigmine 0.1 μmol/L + antipsychotic at TPCmax, ComboSyn
[30] = rivastigmine 0.25 μmol/L + antipsychotic at TPCmax, ComboSyn
[31] = rivastigmine 0.5 μmol/L + antipsychotic at TPCmax, ComboSyn
[32] = rivastigmine 0.75 μmol/L + antipsychotic at TPCmax, ComboSyn
[33] = rivastigmine 1 μmol/L + antipsychotic at TPCmax, ComboSyn
[34] = rivastigmine 2.5 μmol/L + antipsychotic at TPCmax, ComboSyn
[35] = rivastigmine 5 μmol/L + antipsychotic at TPCmax, ComboSyn
[36] = rivastigmine 50 μmol/L + antipsychotic at TPCmax

| SMILES | CI (combination index), AChE [3, 8] | CI (combination index), AChE [3, 9] | CI (combination index), AChE [3, 10] | CI (combination index), AChE [3, 11] | CI (combination index), AChE [3, 12] | CI (combination index), AChE [3, 13] | CI (combination index), AChE [3, 14] | CI (combination index), AChE [3, 15] | CI (combination index), AChE [3, 16] | CI (combination index), AChE [3, 17] | CI (combination index), AChE [3, 18] | CI (combination index), AChE [3, 19] | CI (combination index), BuChE [6, 22] | CI (combination index), BuChE [6, 23] | CI (combination index), BuChE [6, 24] | CI (combination index), BuChE [6, 25] | CI (combination index), BuChE [6, 26] | CI (combination index), BuChE [6, 27] | CI (combination index), BuChE [6, 28] | CI (combination index), BuChE [6, 29] | further results |
| --- | --- | --- | --- | --- | --- | --- | --- | --- | --- | --- | --- | --- | --- | --- | --- | --- | --- | --- | --- | --- | --- |
| OC1(c2ccc(Cl)c(C(F)(F)F)c2)CCN(CCCC(c2ccc(F)cc2)c2ccc(F)cc2)CC1 [Penfluridol, penfluridol] | 0.79 | 0.80 | 0.93 | 0.89 | 0.90 | > 2.50 | 0.75 | 0.73 | 0.92 | 0.97 | 1.06 | 1.06 | 1.21 | 0.98 | 1.04 | 1.03 | 1.14 | 1.21 | 0.64 | 0.68 | astrocyte viability compared with the control (pure AAPH) [1]: statistically significant increase; effect on Aβ aggregation within 10–90 min ([2]; 25 µg/L, at any of these time points): does not inhibit; Effect on IC50 AChE of rivastigmine ([3]; binary mixture vs pure rivastigmine ([…]), ↓ lower, ↑ higher IC50, - no change): does not affect; AChE reaction velocity [4]: 0.226 ± 0.012 A/min; viability of HUVEC under AAPH [5, 20]: 82.9%; viability of HUVEC under AAPH [5, 21]: 80.5%; CI (combination index), BuChE [6, 30]: 0.79; CI (combination index), BuChE [6, 31]: 1.01; CI (combination index), BuChE [6, 32]: 1.08; CI (combination index), BuChE [6, 33]: 1.13; CI (combination index), BuChE [6, 34]: 1.28; CI (combination index), BuChE [6, 35]: 1.17 |
| O=c1[nH]c2ccccc2n1C1CCN(CCCC(c2ccc(F)cc2)c2ccc(F)cc2)CC1 [Pimozide, pimozide] | 0.50 | 0.63 | 0.62 | 0.65 | 0.68 | 0.26 | 0.37 | 0.38 | 0.47 | 0.56 | 0.62 | 0.65 | 0.57 | 0.55 | 0.78 | 0.76 | 0.91 | 0.79 | > 2.50 | > 2.50 | astrocyte viability compared with the control (pure AAPH) [1]: statistically significant increase; effect on Aβ aggregation after a longer incubation time ([2]; 24 and 48 h, both tested concentrations): substantially inhibit; CI (combination index), AChE [3, 36]: 0.57; AChE reaction velocity ([4]; 25 µg/L, control 0.263 ± 0.011 A/min): 0.253 ± 0.012 A/min; AChE reaction velocity ([4]; 100 µg/L, control 0.263 ± 0.011 A/min): 0.248 ± 0.009 A/min; viability of HUVEC under AAPH [5, 20]: 65.2%; viability of HUVEC under AAPH [5, 21]: 64.2%; CI (combination index), BuChE [6, 30]: > 2.50; CI (combination index), BuChE [6, 31]: > 2.50; CI (combination index), BuChE [6, 32]: > 2.50; CI (combination index), BuChE [6, 33]: > 2.50; CI (combination index), BuChE [6, 34]: > 2.50; CI (combination index), BuChE [6, 35]: > 2.50; CI (combination index), BuChE ([6]; rivastigmine (0.05–5 µmol/L) / pimozide at TPCmax, beyond the scale of Figure 5B): above 2.5 |
| O=C(CCCN1CCC(O)(c2ccc(Cl)cc2)CC1)c1ccc(F)cc1 [Haloperidol, haloperidol] | > 2.50 | > 2.50 | > 2.50 | 0.37 | 0.09 | 0.39 | 0.55 | 0.60 | 0.70 | 0.71 | 0.86 | 0.82 | 0.71 | 0.67 | 0.79 | 0.77 | 0.84 | 0.87 | 0.61 | 0.44 | effect on Aβ aggregation within 90 min of incubation ([2]; both tested concentrations (½ TPC and TPC)): ceases to significantly inhibit; CI (combination index), AChE [3, 36]: 0.79; effect on AChE activity ([4]; therapeutic concentrations): do not affect; decrease of BuChE activity ([7]; 100 µg/L): 9.6 ± 2.3%; BuChE reaction velocity ([7]; 100 µg/L, control 0.252 ± 0.022 A/min): 0.228 ± 0.021 A/min; effect on BuChE activity ([7]; therapeutic concentrations): do not affect; CI (combination index), BuChE [6, 30]: 0.67; CI (combination index), BuChE [6, 31]: 0.87; CI (combination index), BuChE [6, 32]: 1.06; CI (combination index), BuChE [6, 33]: 1.03; CI (combination index), BuChE [6, 34]: 1.19; CI (combination index), BuChE [6, 35]: 1.22 |
| O=C1O[C@H]([C@@H](O)CO)C(O)=C1O [AA, ascorbic acid] |  |  |  |  |  |  |  |  |  |  |  |  |  |  |  |  |  |  |  |  | viability at 10 µg/mL ([1]; Homo sapiens, Astrocyte, 10 μg/mL, AAPH 15 mmol/L): 72.9%; viability at 10 µg/mL ([5]; Homo sapiens, HUVEC, 10 μg/mL): 81 ± 3.4% |
